According to patent US20140080885A1, “METHODS OF TREATING TRAUMATIC BRAIN INJURY” (University of South Florida (A Florida Non-Profit …, priority 2012, published 2014):

Tested on: CA3 layer of the hippocampus in rats 24 hrs following TBI
Assay: Hippocampal damage after TBI (lateral fluid percussion injury), Fluoro-Jade staining of degenerating neurons
Format: in vivo, Male Sprague-Dawley rats
Conditions: vs vehicle (2.5% DMSO in saline), p<0.0293 ANOVA with Dunnett's post-hoc test
Method: FIG. 1 illustrates that Carvedilol treatment reduces hippocampal damage following TBI. Representative images of the CA3 layer of the hippocampus in rats 24 hrs following TBI, vehicle treated (A) and carvedilol treated (B) at 1 and 12 hrs following the insult. […] Images were taken at 4× magnification. Dosing was subcutaneous and the vehicle is 2.5% DMSO in saline.
All animal procedures were conducted in accordance with the NIH Guide for the Care and Use of Laboratory Animals following a protocol approved by the Institutional Animal Care and Use Committee at the University of South Florida. Male Sprague-Dawley rats (Harlan, Indianapolis, Ind.) weighing 250 to 300 g were housed in a climate-controlled room with water and laboratory chow available ad libitum. A total of 33 animals were used in this study.
Induction of Lateral Fluid Percussion Injury (LFPI) Animals were anesthetized using a mixture of ketamine (90 mg/kg)/xylazine (10 mg/kg) (IP). […] Impact pressures were measured using a transducer attached to the point of impact on the fluid percussive device. […]
All quantitation was performed using the NIH Image J software. […] Photomicrographs captured at 200× magnification with an Olympus DP70 camera were used for quantification. […] The channels of the RGB images were split and the green channel was used for quantitation of the FJ staining images. […]

For `COc1ccccc1OCCNCC(O)COc1cccc2[nH]c3ccccc3c12` (racemic) [Carvedilol, (±)-[3-(9H-carbazol-4-yloxy)-2-hydroxypropyl][2-(2-methoxyphenoxy)ethyl]amine], the “hippocampal damage following TBI” value (subcutaneous dosing at 1 and 12 hrs following the insult) was “significantly reduces hippocampal damage” and the “hippocampal damage following TBI” value (subcutaneous dosing at 6 and 12 (hrs) following the insult) was “significantly reduces hippocampal damage”.
